From article PMC5021965 (Scientific Reports, 2016)
Where two headings read alike, the source gives them in different places.

Legend:
primary rat hepatocytes [1] = assay: ROS generation in primary rat hepatocytes (DCFH-DA probe); assay type: cell-based; settings: primary hepatocytes of DM rats, atorvastatin 10 μM; GSH 0.5 and 2 mM, N-Acetylcysteine 0.5 and 2 mM, gemfibrozil 10 and 50 μM, ketoconazole 2 μM
Procedure: (§1) Another subset of experimental rats (CON, HFD and DM rats) were used for the primary rat hepatocytes isolation. […] Primary hepatocytes were isolated from experimental rats in a modified two-step collagenase perfusion method as previously reported. An aliquot of the hepatocyte suspension (at a density of 2.5 × 10^5/ml) was seeded in collagen-precoated plates. Following 4-h incubation, the medium was replaced with 500 μl fresh cultured medium. Twenty-four hours after plating, the medium was removed and the hepatocytes were overlaid with BD matrigel (0.25 mg/ml) in feeding medium (DMEM containing […] dexamethasone and 1% ITS) and cultured for another 24 h at 37 °C in a humidified atmosphere containing 5% CO2 for following experiments.
(§2) ROS generation was simultaneously measured using DCFH-DA as a fluorescent probe.

primary rat hepatocytes [2] = assay: Hepatotoxicity in primary rat hepatocytes (MTT cell viability, LDH release); settings: for effect on atorvastatin-induced cytotoxicity: primary hepatocytes of DM rats, atorvastatin 10 μM, GSH 0.5 and 2 mM, N-Acetylcysteine 0.5 and 2 mM, gemfibrozil 10 and 50 μM, ketoconazole 2 μM
Procedure: as §1, §2

[3] = phenobarbital i.p. 80 mg/kg
Procedure: Blood samples were collected under light ether anesthesia via the oculi chorioideae vein at 5, 10, 20, 30, 45, 60, 120, 240, 360, and 720 min after first dose and last dose. After 3 or 4 samplings, the appropriate amount of normal saline was administered to the rats via the tail vein to compensate for blood loss. The blood collected was mixed properly with the anticoagulant and centrifuged at 4000 rpm for 10 min. The plasma was separated and stored at −80 °C until drug analysis.
The pharmacokinetic parameters were calculated using noncompartmental analysis on Phenix WinNonlin 6.1 (Pharsight, St. Louis, MO). All values were expressed as mean ± S.D. Results were analyzed using one-way analysis of variance (ANOVA) followed by Tukey’s post hoc test. Differences among groups were determined by nonparametric test when necessary. Statistical significance was assumed at P < 0.05.

hepatic SLCO1B1 = assay: Activity and expression of hepatic SLCO1B1 in phenobarbital-treated rats; assay type: in vivo, rat; settings: PB rats, phenobarbital i.p. 80 mg/kg
[4] = system: normal rats and phenobarbital pre-treated rats; assay: Atorvastatin-induced hepatotoxicity in normal rats and rats pre-treated with phenobarbital; settings: phenobarbital i.p. 80 mg/kg with atorvastatin 10, 20, 40 mg/kg for 10 days
Procedure: For normal rats, they were randomly divided into vehicle (CON) rats, low-dose treatment (AL) rats, middle-dose treatment (AM) rats and high-dose treatment (AH) rats (n = 5 for each group). CON rats orally received daily dose of vehicle. […] The serum biochemical parameters, liver weight and ROS levels were measured as described above.

hepatic Cyp3a = assay: Activity and expression of hepatic Cyp3a in phenobarbital-treated rats; settings: PB rats, phenobarbital i.p. 80 mg/kg
Procedure: as §1
Repaglinide (20 μM) and midazolam (10 μM) were used as probe substrates to identify the activities of SLCO1B1 and Cyp3a, respectively.
Total rat liver extract was prepared in RIPA lysis buffer containing 1 mM PMSF to measure protein levels of Cyp3a and SLCO1B1. Protein concentrations were measured by the BCA protein assay kit. 50 μg proteins were separated on a SDS-polyacrylamide gel electrophoresis and transferred onto polyvinylidene fluoride membranes (Millipore Corporation, Billerica, MA, USA).

HepG2 cells [5] = assay: Hepatotoxicity of atorvastatin in HepG2 cells (MTT); settings: 10 μM, 24 h
Procedure: (§3) The cells were cultured in DMEM containing 10% FBS (fetal bovine serum), non-essential amino acids, antibiotics (100 IU/ml penicillin and 100 μg/ml streptomycin), 2 mM L-glutamine, and 3.7 g/L NaHCO3 in a humidified incubator of 5% CO2 and 95% air atmosphere at 37 °C.

HepG2 cells [6] = assay: Atorvastatin metabolism in HepG2 cells (formation of ortho-hydroxy atorvastatin); settings: HepG2, ketoconazole 2 and 10 μM; atorvastatin 30 μM, 30 min
Procedure: as §3

[7] = DM-AL: diabetic rats, 10 mg/kg, 10 days
[8] = DM-AM: diabetic rats, 20 mg/kg, 10 days
[9] = diabetic rats, 10 and 20 mg/kg, 10 days
[10] = serum, DM-AL: diabetic rats, 10 mg/kg, 10 days
[11] = serum, DM-AM: 20 mg/kg, 10 days
[12] = serum, DM-AM: diabetic rats, 20 mg/kg, 10 days

Procedure for diabetic rats: Briefly, experimental rats were assigned randomly to three groups: control (CON) group (n = 5), high-fat diet (HFD) group (n = 5) and diabetic (DM) group (n = 20). The CON rats were fed on normal chow while both HFD rats and DM rats were fed on high-fat diet (TROPHIC Animal Feed High-tech Co. Ltd, Nantong, China). After six-week of dietary manipulation, DM rats intraperitoneally (i.p.) received a single dose of STZ (35 mg/kg).
The diabetic rats were randomly divided into four groups (n = 5 for each group). The first group served as control group (DM).
Following last dose, rats, fasted overnight, were anesthetized with diethyl ether and blood samples were collected for measurement of blood chemistry. Then, the animals were sacrificed; the liver samples were harvested for standard histology, hepatic biochemical measurement and Western blot.

## N[C@@H](CCC(=O)N[C@@H](CS)C(=O)NCC(=O)O)C(=O)O [GSH, Glutathione]
Primary rat hepatocytes [1]
  effect on atorvastatin-induced production of ROS: concentration-dependently reversed
Primary rat hepatocytes [2]
  effect on atorvastatin-induced cytotoxicity: concentration-dependently reversed

## CC(=O)N[C@@H](CS)C(=O)O [N-Acetylcysteine]
Primary rat hepatocytes [1]
  effect on atorvastatin-induced production of ROS: concentration-dependently reversed
Primary rat hepatocytes [2]
  effect on atorvastatin-induced cytotoxicity: concentration-dependently reversed

## CCC1(c2ccccc2)C(=O)NC(=O)NC1=O [phenobarbital, Phenobarbital]
[3]
  effect on plasma exposure of atorvastatin in rats: decreased
Hepatic SLCO1B1
  activities and expressions of hepatic SLCO1B1: significantly increased
[4]
  effect of co-administration on atorvastatin hepatotoxicity: markedly potentiated
Hepatic Cyp3a
  activities and expressions of hepatic Cyp3a: significantly increased

## CC(C)c1c(C(=O)Nc2ccccc2)c(-c2ccccc2)c(-c2ccc(F)cc2)n1CC[C@@H](O)C[C@@H](O)CC(=O)O [atorvastatin, Atorvastatin calcium]
HepG2 cells [5]
  cell viability: little affected
Primary rat hepatocytes [2]; phenobarbital pre-treated rats, 96 h
  cytotoxicity in primary hepatocytes of PB rats: severe cytotoxicity
Diabetic rats; DM-AL: diabetic rats, 10 mg/kg atorvastatin orally once daily for 10 days
  Body weight: 269.3 ± 5.3 g
Diabetic rats; [7]
  FBG: 18.38 ± 1.75 mM
  FINS: 32.65 ± 2.15 mIU/L
  HOMA-IR: 27.56 ± 2.01
  Liver weight (% of body weight): 6.94 ± 0.95 % of body weight
  Spleen weight (% of body weight): 0.264 ± 0.027 % of body weight
Diabetic rats; DM-AM: 20 mg/kg, 10 days
  liver weight (% of body weight) compared with DM rats: almost doubled
Diabetic rats; DM-AM: diabetic rats, 20 mg/kg atorvastatin orally once daily for 10 days
  Body weight: 250.8 ± 22.4 g
Diabetic rats; [8]
  FBG: 18.34 ± 1.60 mM
  FINS: 32.51 ± 4.45 mIU/L
  HOMA-IR: 26.92 ± 2.52
  Liver weight (% of body weight): 10.60 ± 2.25 % of body weight
  Spleen weight (% of body weight): 0.392 ± 0.033 % of body weight
Diabetic rats; [9]
  MDA levels in liver: increased
  SOD, CAT, GSH-pX and SDH activities in liver: dose-dependently lowered
Diabetic rats; liver, DM-AL (10 mg/kg) and DM-AM (20 mg/kg) rats
  histopathological damage scores: Higher
Diabetic rats; [10]
  TC: 4.02 ± 0.71 mM
  TG: 5.40 ± 0.50 mM
Diabetic rats; [11]
  AKP level compared with DM rats: approximately doubled
  ALT level compared with DM rats: approximately doubled
  AST level compared with DM rats: approximately doubled
  DBIL level compared with DM rats: almost tripled
  TBIL level compared with DM rats: almost tripled
  level of Alb: significant decrease
Diabetic rats; [12]
  TC: 3.42 ± 0.52 mM
  TG: 3.75 ± 0.70 mM

## Cc1ccc(C)c(OCCCC(C)(C)C(=O)O)c1 [gemfibrozil]
Primary rat hepatocytes [1]
  effect on atorvastatin-induced production of ROS: concentration-dependently reversed
Primary rat hepatocytes [2]
  effect on atorvastatin-induced cytotoxicity: concentration-dependently reversed

## CC(=O)N1CCN(c2ccc(OCC3COC(Cn4ccnc4)(c4ccc(Cl)cc4Cl)O3)cc2)CC1 (stereo not drawn) [ketoconazole, Ketoconazole]
HepG2 cells [6]
  effect of co-incubation on atorvastatin metabolism: concentration-dependently inhibited
